Assay results as given in US9012443B2 (Amgen Inc., priority 2011, dated 2015).

Experiments:
[1] = biological target: Nav 1.7 (Homo sapiens (Human), UniProt Q15858); experiment: Nav 1.7 in vitro PX assay (PatchXpress whole cell voltage clamp); assay type: cell-based; conditions: 293 cells, human Nav1.7, partially inactivated state; read-out: Nav1.7 PX IC50 IP
In short: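 Partially inactivated channel state (holding potential for 20–50% inactivation) probed in human Nav1.7-transfected 293 cells by automated patch clamp, test pulse −10 mV for 20 msec.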

[2] = biological target: Nav 1.5 (Homo sapiens (Human), UniProt Q14524); experiment: Nav 1.5 in vitro PX assay (PatchXpress whole cell voltage clamp); assay type: cell-based; conditions: 293 cells stably transfected with Nav 1.5; second part of table; read-out: Nav1.5 PX IC50
Sequence of Nav 1.5 (Q14524 whole entry): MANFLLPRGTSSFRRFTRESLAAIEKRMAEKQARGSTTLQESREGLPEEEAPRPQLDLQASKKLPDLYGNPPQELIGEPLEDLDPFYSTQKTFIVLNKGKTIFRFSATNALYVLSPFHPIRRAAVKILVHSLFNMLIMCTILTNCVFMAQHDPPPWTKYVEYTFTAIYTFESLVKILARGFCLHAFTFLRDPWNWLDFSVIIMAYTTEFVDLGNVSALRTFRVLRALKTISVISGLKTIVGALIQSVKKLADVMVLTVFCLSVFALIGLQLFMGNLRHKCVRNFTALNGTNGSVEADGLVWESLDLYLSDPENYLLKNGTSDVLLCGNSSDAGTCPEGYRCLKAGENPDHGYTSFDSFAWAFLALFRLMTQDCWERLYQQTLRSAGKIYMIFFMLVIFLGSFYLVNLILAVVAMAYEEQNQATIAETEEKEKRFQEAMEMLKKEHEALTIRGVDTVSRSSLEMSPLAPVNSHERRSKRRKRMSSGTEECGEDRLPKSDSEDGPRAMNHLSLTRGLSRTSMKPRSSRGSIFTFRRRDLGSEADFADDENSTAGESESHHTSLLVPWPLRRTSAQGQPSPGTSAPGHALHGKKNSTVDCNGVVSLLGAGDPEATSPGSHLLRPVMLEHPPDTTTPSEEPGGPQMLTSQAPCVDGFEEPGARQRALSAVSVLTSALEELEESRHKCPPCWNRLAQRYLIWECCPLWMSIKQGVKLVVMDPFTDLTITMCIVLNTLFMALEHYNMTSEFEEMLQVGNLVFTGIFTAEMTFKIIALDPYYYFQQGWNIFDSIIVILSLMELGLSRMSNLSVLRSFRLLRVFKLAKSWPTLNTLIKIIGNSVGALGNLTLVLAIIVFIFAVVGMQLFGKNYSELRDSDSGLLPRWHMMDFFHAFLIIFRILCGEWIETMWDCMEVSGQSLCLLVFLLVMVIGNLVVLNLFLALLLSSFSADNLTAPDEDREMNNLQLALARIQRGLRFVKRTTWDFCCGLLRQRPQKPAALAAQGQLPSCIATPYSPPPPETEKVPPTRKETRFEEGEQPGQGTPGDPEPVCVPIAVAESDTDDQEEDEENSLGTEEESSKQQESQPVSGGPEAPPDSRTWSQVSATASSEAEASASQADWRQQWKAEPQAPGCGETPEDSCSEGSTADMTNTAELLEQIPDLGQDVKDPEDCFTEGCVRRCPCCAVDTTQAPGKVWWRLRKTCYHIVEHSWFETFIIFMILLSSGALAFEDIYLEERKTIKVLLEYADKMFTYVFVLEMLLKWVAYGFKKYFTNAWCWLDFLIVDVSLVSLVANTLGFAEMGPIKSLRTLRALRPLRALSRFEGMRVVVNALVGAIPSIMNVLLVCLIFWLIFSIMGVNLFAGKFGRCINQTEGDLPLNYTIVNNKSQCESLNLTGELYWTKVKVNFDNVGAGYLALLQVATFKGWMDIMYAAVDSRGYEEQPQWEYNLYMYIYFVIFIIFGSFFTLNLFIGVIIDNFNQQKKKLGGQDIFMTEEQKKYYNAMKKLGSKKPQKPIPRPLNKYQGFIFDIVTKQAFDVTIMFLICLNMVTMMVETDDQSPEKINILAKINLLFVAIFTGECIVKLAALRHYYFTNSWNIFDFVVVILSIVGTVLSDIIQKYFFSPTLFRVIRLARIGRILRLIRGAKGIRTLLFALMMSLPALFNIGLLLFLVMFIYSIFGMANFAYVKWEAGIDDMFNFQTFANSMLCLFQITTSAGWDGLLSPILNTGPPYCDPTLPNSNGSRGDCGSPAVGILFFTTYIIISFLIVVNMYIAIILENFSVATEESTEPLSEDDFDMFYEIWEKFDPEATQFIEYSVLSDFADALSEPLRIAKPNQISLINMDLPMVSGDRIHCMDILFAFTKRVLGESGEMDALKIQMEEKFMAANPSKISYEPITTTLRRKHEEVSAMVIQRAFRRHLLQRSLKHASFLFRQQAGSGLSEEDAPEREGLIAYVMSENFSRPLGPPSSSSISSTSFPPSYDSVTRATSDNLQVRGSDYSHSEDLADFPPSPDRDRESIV
Procedure: Nav 1.5 In Vitro PX Assay
293 cells stably transfected with Nav 1.5 were recorded in whole cell voltage clamp mode with the PatchXpress automated electrophysiology system according the manufacturer's specifications (Molecular Devices, LLC, Sunnyvale, Calif.). Cells were held at a holding potential of −50 mV to inactivate sodium channels. To elicit sodium currents the voltage was changed to −120 mV to recover a portion of the channels, followed by delivery of test pulses of 20 msec duration to 0 mV, at 0.1 Hz. A single concentration of test compound was applied to cells for a duration of 5 minutes. Peak sodium current was measured at the end of the compound addition period to determine percent inhibition. A minimum of two cells were tested per concentration. IC50 curves were fitted to percent inhibition as a function of concentration.

Sequence of Nav 1.7 (Q15858 whole entry): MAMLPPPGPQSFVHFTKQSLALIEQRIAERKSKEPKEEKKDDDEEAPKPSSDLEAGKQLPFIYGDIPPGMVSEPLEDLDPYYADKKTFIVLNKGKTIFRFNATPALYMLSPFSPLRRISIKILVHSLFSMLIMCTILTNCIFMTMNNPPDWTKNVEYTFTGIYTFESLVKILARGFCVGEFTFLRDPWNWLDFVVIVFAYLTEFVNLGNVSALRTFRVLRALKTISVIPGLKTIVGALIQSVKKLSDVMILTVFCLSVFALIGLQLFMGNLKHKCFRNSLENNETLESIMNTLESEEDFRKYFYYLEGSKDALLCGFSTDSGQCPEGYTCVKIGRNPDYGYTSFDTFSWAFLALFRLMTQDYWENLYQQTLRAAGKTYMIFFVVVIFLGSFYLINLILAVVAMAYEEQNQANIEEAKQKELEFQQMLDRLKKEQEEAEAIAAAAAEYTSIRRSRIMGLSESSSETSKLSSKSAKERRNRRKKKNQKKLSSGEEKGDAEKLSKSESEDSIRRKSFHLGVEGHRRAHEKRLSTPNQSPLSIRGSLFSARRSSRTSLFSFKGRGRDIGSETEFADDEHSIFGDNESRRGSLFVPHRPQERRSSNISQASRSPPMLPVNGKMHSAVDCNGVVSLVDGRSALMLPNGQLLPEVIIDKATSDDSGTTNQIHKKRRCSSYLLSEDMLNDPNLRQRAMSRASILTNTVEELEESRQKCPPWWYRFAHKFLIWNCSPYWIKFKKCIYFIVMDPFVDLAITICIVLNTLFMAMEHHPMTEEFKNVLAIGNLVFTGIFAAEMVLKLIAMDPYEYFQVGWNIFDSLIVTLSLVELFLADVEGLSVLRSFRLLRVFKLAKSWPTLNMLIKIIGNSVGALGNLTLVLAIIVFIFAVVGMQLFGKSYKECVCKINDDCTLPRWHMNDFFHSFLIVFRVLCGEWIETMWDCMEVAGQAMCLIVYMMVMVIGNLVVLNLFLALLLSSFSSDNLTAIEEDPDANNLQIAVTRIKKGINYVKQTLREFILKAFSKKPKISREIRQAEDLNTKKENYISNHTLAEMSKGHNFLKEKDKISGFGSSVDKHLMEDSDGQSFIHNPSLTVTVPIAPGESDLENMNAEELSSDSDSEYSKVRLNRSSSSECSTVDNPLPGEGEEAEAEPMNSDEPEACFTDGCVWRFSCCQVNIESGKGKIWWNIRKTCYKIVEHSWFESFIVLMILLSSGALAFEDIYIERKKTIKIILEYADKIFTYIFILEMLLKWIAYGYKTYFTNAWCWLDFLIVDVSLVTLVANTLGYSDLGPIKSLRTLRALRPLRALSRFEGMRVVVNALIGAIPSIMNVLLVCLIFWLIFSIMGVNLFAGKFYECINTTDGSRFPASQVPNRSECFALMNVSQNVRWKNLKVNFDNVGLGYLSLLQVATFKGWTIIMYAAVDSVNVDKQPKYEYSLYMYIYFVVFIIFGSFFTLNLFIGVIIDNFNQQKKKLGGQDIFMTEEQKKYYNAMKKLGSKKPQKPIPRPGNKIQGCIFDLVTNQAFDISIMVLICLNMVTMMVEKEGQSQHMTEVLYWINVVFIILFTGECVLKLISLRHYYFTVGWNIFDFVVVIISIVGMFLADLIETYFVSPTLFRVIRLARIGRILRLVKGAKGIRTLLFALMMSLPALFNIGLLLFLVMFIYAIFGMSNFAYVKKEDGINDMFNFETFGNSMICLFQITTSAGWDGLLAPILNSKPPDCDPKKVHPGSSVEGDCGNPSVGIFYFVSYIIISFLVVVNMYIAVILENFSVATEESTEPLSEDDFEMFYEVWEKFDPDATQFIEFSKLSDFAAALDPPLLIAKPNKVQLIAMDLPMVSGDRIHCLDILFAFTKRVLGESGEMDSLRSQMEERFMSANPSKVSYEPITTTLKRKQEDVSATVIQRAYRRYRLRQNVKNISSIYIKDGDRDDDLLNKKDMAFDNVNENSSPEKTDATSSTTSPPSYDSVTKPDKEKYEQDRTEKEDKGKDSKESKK

SMILES | IC50 [1] | IC50 [2]
COc1cc(F)ccc1-c1ncnc2cc(S(=O)(=O)Nc3nccs3)ccc12 [Example 271, 4-(4-FLUORO-2-METHOXYPHENYL)-N-(THIAZOL-2-YL)QUINAZOLINE-7-SULFONAMIDE] | 450 nM | > 30000 nM
COc1cc(C(F)F)ccc1-c1nc(C)nc2cc(S(=O)(=O)Nc3nccs3)ccc12 [Example 515, 4-(4-(difluoromethyl)-2-methoxyphenyl)-2-methyl-N-(thiazol-2-yl)quinazoline-7-sulfonamide] | 478 nM | > 30000 nM
COc1cc(-c2cccc(F)c2)c(Cl)cc1-c1ncnc2cc(S(=O)(=O)Nc3ncns3)ccc12 [Example 521, 4-(2-CHLORO-3′-FLUORO-5-METHOXY-[1,1′-BIPHENYL]-4-YL)-N-(1,2,4-THIADIAZOL-5-YL)QUINAZOLINE-7-SULFONAMIDE] | 19 nM | 4750 nM
COc1cc(-c2ccc(F)c(F)c2)ccc1-c1ncnc2cc(S(=O)(=O)Nc3nncs3)ccc12 [Example 530, 4-(3′,4′-DIFLUORO-3-METHOXY-[1,1′-BIPHENYL]-4-YL)-N-(1,3,4-THIADIAZOL-2-YL)QUINAZOLINE-7-SULFONAMIDE] | 233 nM | > 30000 nM
COc1cc(C(F)(F)F)ccc1-c1ccnc2cc(S(=O)(=O)Nc3nccs3)c(F)cc12 [Example 319, 6-FLUORO-4-(2-METHOXY-4-(TRIFLUOROMETHYL)PHENYL)-N-(THIAZOL-2-YL)QUINOLINE-7-SULFONAMIDE 2,2,2-TRIFLUOROACETATE] | 407 nM | 2790 nM
COc1cc(C(F)(F)F)ccc1-c1nccc2cc(S(=O)(=O)Nc3cscn3)ccc12 [Example 497, 1-(2-METHOXY-4-(TRIFLUOROMETHYL)PHENYL)-N-(THIAZOL-4-YL)ISOQUINOLINE-6-SULFONAMIDE] | 786 nM | > 30000 nM
COc1cc(F)ccc1-c1ncc(F)c2cc(S(=O)(=O)Nc3ncns3)ccc12 [Example 394, 4-FLUORO-1-(4-FLUORO-2-METHOXYPHENYL)-N-(1,2,4-THIADIAZOL-5-YL)ISOQUINOLINE-6-SULFONAMIDE] | 338 nM | > 30000 nM
COc1cc(F)ccc1-c1nccc2cc(S(=O)(=O)Nc3nccs3)ccc12 [Example 405, 1-(4-FLUORO-2-METHOXYPHENYL)-N-(THIAZOL-2-YL)ISOQUINOLINE-6-SULFONAMIDE] | 442 nM | > 30000 nM
COc1cc(-c2cc(F)cc(F)c2)ccc1-c1ncnc2cc(S(=O)(=O)Nc3nncs3)ccc12 [Example 531, 4-(3′,5′-DIFLUORO-3-METHOXY-[1,1′-BIPHENYL]-4-YL)-N-(1,3,4-THIADIAZOL-2-YL)QUINAZOLINE-7-SULFONAMIDE] | 231 nM | > 30000 nM
COc1cc(-c2cc(F)cc(F)c2)c(C#N)cc1-c1nccc2cc(S(=O)(=O)Nc3ccon3)ccc12 [Example 343, 1-(2-CYANO-3′,5′-DIFLUORO-5-METHOXY-[1,1′-BIPHENYL]-4-YL)-N-(ISOXAZOL-3-YL)ISOQUINOLINE-6-SULFONAMIDE] | 145 nM | > 30000 nM
COc1cc(F)cc(-c2ccc(-c3nccc4cc(S(=O)(=O)Nc5ccncn5)ccc34)c(OC)c2)c1 [Example 485, 1-(3′-FLUORO-3,5′-DIMETHOXY-[1,1′-BIPHENYL]-4-YL)-N-(PYRIMIDIN-4-YL)ISOQUINOLINE-6-SULFONAMIDE] | 128 nM | > 30000 nM

Continued, in another order:

IC50 [1] | SMILES | IC50 [2]
177 nM | COc1cc(-c2ccc(-c3nccc4cc(S(=O)(=O)Nc5ccncn5)ccc34)c(OC)c2)ccc1F [Example 484, 1-(4′-FLUORO-3,3′-DIMETHOXY-[1,1′-BIPHENYL]-4-YL)-N-(PYRIMIDIN-4-YL)ISOQUINOLINE-6-SULFONAMIDE] | > 30000 nM
272 nM | COc1cc(C(F)(F)F)ccc1-c1nccc2cc(S(=O)(=O)Nc3nc(Cl)cs3)ccc12 [Example 419, N-(4-CHLOROTHIAZOL-2-YL)-1-(2-METHOXY-4-(TRIFLUOROMETHYL)PHENYL)ISOQUINOLINE-6-SULFONAMIDE] | > 30000 nM
258 nM | COc1ccc(Cl)cc1-c1n[nH]c(=O)c2cc(S(=O)(=O)Nc3ncns3)ccc12 [Example 505, 1-(5-CHLORO-2-METHOXYPHENYL)-4-OXO-N-(1,2,4-THIADIAZOL-5-YL)-3,4-DIHYDROPHTHALAZINE-6-SULFONAMIDE] | > 30000 nM
56 nM | COc1cc(-c2ccc(C)c(F)c2)ccc1-c1nccc2cc(S(=O)(=O)Nc3ccncn3)ccc12 [Example 471, 1-(3′-FLUORO-3-METHOXY-4′-METHYL-[1,1′-BIPHENYL]-4-YL)-N-(PYRIMIDIN-4-YL)ISOQUINOLINE-6-SULFONAMIDE] | > 30000 nM
150 nM | COc1cc(C(F)F)c(Cl)cc1-c1ncnc2cc(S(=O)(=O)Nc3nccs3)ccc12 [Example 270, 4-(5-CHLORO-4-(DIFLUOROMETHYL)-2-METHOXYPHENYL)-N-(THIAZOL-2-YL)QUINAZOLINE-7-SULFONAMIDE] | 7440 nM
500 nM | COc1cc(Cl)c(Cl)cc1-c1nccc2cc(S(=O)(=O)Nc3nccs3)ccc12 [Example 177, 1-(4,5-DICHLORO-2-METHOXYPHENYL)-N-(THIAZOL-2-YL)ISOQUINOLINE-6-SULFONAMIDE] | > 30000 nM
330 nM | N#CCOc1cc(F)ccc1-c1nccc2cc(S(=O)(=O)Nc3nccs3)ccc12 [Example 192, 1-(2-(CYANOMETHOXY)-4-FLUOROPHENYL)-N-(THIAZOL-2-YL)ISOQUINOLINE-6-SULFONAMIDE] | > 30000 nM
34 nM | COc1ccc(-c2cccc(C(F)(F)F)c2)cc1-c1nccc2cc(S(=O)(=O)Nc3nncs3)ccc12 [Example 344, 1-(4-METHOXY-3′-(TRIFLUOROMETHYL)-[1,1′-BIPHENYL]-3-YL)-N-(1,3,4-THIADIAZOL-2-YL)ISOQUINOLINE-6-SULFONAMIDE] | > 30000 nM
118 nM | COc1cc(C#N)ccc1-c1cccc2cc(S(=O)(=O)Nc3ncns3)ccc12 [Example 330] | > 30000 nM
284 nM | COc1cc(C(F)F)c(OC)cc1-c1nccc2cc(S(=O)(=O)Nc3nccs3)ccc12 [Example 452, 1-(4-(DIFLUOROMETHYL)-2,5-DIMETHOXYPHENYL)-N-(THIAZOL-2-YL)ISOQUINOLINE-6-SULFONAMIDE] | > 30000 nM
177 nM | COc1ccc(Cl)cc1-c1n[nH]c(=O)c2cc(S(=O)(=O)Nc3ncc(F)s3)ccc12 [Example 507, 1-(5-CHLORO-2-METHOXYPHENYL)-N-(5-FLUOROTHIAZOL-2-YL)-4-OXO-3,4-DIHYDROPHTHALAZINE-6-SULFONAMIDE] | > 30000 nM
359 nM | COc1ccc(-c2ccc(-c3nccc4cc(S(=O)(=O)Nc5ccncn5)ccc34)c(OC)c2)cc1 [Example 468, 1-(3,4′-DIMETHOXY-[1,1′-BIPHENYL]-4-YL)-N-(PYRIMIDIN-4-YL)ISOQUINOLINE-6-SULFONAMIDE] | > 30000 nM
40 nM | COc1ccc(-c2cccc(F)c2)cc1-c1nccc2cc(S(=O)(=O)Nc3ncns3)ccc12 [Example 347, 1-(3′-FLUORO-4-METHOXY-[1,1′-BIPHENYL]-3-YL)-N-(1,2,4-THIADIAZOL-5-YL)ISOQUINOLINE-6-SULFONAMIDE] | > 30000 nM
99 nM | COc1cc(-c2ccc(F)c(C)c2)ccc1-c1nccc2cc(S(=O)(=O)Nc3ccncn3)ccc12 [Example 488, 1-(4′-FLUORO-3-METHOXY-3′-METHYL-[1,1′-BIPHENYL]-4-YL)-N-(PYRIMIDIN-4-YL)ISOQUINOLINE-6-SULFONAMIDE] | > 30000 nM
